Reference: patent US12227495B2, “Herbicidal compounds” (SYNGENTA CROP PROTECTION AG, priority 2018, dated 2025)

Tests used:
Format in all cases: in vivo
Solanum nigrum (SOLNI) [1] = assay: Post-emergence herbicide test, glasshouse, percentage damage; conditions: 1000 g/ha, evaluated after 13 days
Procedure, shortened: (§1)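 Pot-grown plants were sprayed at 500 g/ha unless otherwise stated, in acetone/water (50:50) with 0.5% Tween 20. Pre-emergence spraying was 1 day after sowing and post-emergence after 8 days, in a glasshouse at 24/16° C, 14 h light, 65% humidity. Percentage damage was scored 13 days later on a 1–5 scale (5=81-100%).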

Setaria faberi (SETFA) [2] = assay: as above; conditions: 1000 g/ha, evaluated after 13 days
Procedure, shortened: as §1

Lolium perenne (LOLPE) [3] = assay: as above; conditions: 1000 g/ha, evaluated after 13 days
Procedure, shortened: as §1

[4] = test system: Amaranthus retoflexus (AMARE); assay: as above; conditions: 1000 g/ha, evaluated after 13 days
Procedure, shortened: as §1

[5] = test system: Ipomoea hederacea (IPOHE); assay: as above; conditions: 1000 g/ha, evaluated after 13 days
Procedure, shortened: as §1

[6] = test system: Echinochloa crus-galli (ECHCG); assay: as above; conditions: 1000 g/ha, evaluated after 13 days
Procedure, shortened: as §1

Solanum nigrum (SOLNI) [7] = assay: Pre-emergence herbicide test, glasshouse, percentage damage; conditions: rate 1000 g/ha, evaluated after 13 days
Procedure, shortened: as §1

Setaria faberi (SETFA) [8] = assay: as above; conditions: rate 1000 g/ha, evaluated after 13 days
Procedure, shortened: as §1

Lolium perenne (LOLPE) [9] = assay: as above; conditions: rate 1000 g/ha, evaluated after 13 days
Procedure, shortened: as §1

[10] = test system: Amaranthus retoflexus (AMARE); assay: as above; conditions: rate 1000 g/ha, evaluated after 13 days
Procedure, shortened: as §1

[11] = test system: Ipomoea hederacea (IPOHE); assay: as above; conditions: rate 1000 g/ha, evaluated after 13 days
Procedure, shortened: as §1

[12] = test system: Echinochloa crus-galli (ECHCG); assay: as above; conditions: rate 1000 g/ha, evaluated after 13 days
Procedure, shortened: as §1

N#Cc1cccnc1Oc1cccc(Cl)c1-c1cc(C(F)F)no1 [Compound A120]
4 (4=61-80%): percentage damage caused to the plant, IPOHE [5] | percentage damage caused to the plant, ECHCG [6] | Pre-emergence Test SOLNI percentage damage (five point scale) (Solanum nigrum (SOLNI) [7])
3 (3=41-60%): percentage damage caused to the plant, LOLPE (Lolium perenne (LOLPE) [3]) | Pre-emergence Test IPOHE percentage damage (five point scale) [11]
2 (2=21-40%): Pre-emergence Test LOLPE percentage damage (five point scale) (Lolium perenne (LOLPE) [9])
5 (5=81-100%): percentage damage caused to the plant, SOLNI (Solanum nigrum (SOLNI) [1]) | percentage damage caused to the plant, SETFA (Setaria faberi (SETFA) [2]) | percentage damage caused to the plant, AMARE [4] | Pre-emergence Test SETFA percentage damage (five point scale) (Setaria faberi (SETFA) [8]) | Pre-emergence Test AMARE percentage damage (five point scale) [10] | Pre-emergence Test ECHCG percentage damage (five point scale) [12]

Fc1cc(Cl)cnc1Oc1ccccc1-n1ccc(C(F)(F)F)n1 [Compound A121]
1 (1=0-20%): percentage damage caused to the plant, LOLPE (Lolium perenne (LOLPE) [3]) | Pre-emergence Test SOLNI percentage damage (five point scale) (Solanum nigrum (SOLNI) [7]) | Pre-emergence Test LOLPE percentage damage (five point scale) (Lolium perenne (LOLPE) [9]) | Pre-emergence Test IPOHE percentage damage (five point scale) [11]
4 (4=61-80%): percentage damage caused to the plant, SOLNI (Solanum nigrum (SOLNI) [1]) | percentage damage caused to the plant, AMARE [4] | Pre-emergence Test AMARE percentage damage (five point scale) [10] | Pre-emergence Test ECHCG percentage damage (five point scale) [12]
3 (3=41-60%): percentage damage caused to the plant, SETFA (Setaria faberi (SETFA) [2]) | percentage damage caused to the plant, ECHCG [6] | Pre-emergence Test SETFA percentage damage (five point scale) (Setaria faberi (SETFA) [8])
2 (2=21-40%): percentage damage caused to the plant, IPOHE [5]

Fc1cc(Cl)cnc1Oc1cccc(Cl)c1-n1cc(C(F)(F)F)cn1 [Compound A159]
5 (5=81-100%): percentage damage caused to the plant, SOLNI (Solanum nigrum (SOLNI) [1]) | percentage damage caused to the plant, SETFA (Setaria faberi (SETFA) [2]) | percentage damage caused to the plant, AMARE [4] | Pre-emergence Test SOLNI percentage damage (five point scale) (Solanum nigrum (SOLNI) [7]) | Pre-emergence Test SETFA percentage damage (five point scale) (Setaria faberi (SETFA) [8]) | Pre-emergence Test LOLPE percentage damage (five point scale) (Lolium perenne (LOLPE) [9]) | Pre-emergence Test AMARE percentage damage (five point scale) [10] | Pre-emergence Test ECHCG percentage damage (five point scale) [12]
2 (2=21-40%): Pre-emergence Test IPOHE percentage damage (five point scale) [11]
3 (3=41-60%): percentage damage caused to the plant, ECHCG [6]
4 (4=61-80%): percentage damage caused to the plant, LOLPE (Lolium perenne (LOLPE) [3]) | percentage damage caused to the plant, IPOHE [5]

N#Cc1cccc(Oc2ncc(F)cc2F)c1-c1cc(C(F)F)no1 [Compound A160]
5 (5=81-100%): percentage damage caused to the plant, SOLNI (Solanum nigrum (SOLNI) [1]) | percentage damage caused to the plant, SETFA (Setaria faberi (SETFA) [2]) | percentage damage caused to the plant, LOLPE (Lolium perenne (LOLPE) [3]) | percentage damage caused to the plant, AMARE [4] | percentage damage caused to the plant, IPOHE [5] | percentage damage caused to the plant, ECHCG [6] | Pre-emergence Test SETFA percentage damage (five point scale) (Setaria faberi (SETFA) [8]) | Pre-emergence Test LOLPE percentage damage (five point scale) (Lolium perenne (LOLPE) [9]) | Pre-emergence Test AMARE percentage damage (five point scale) [10] | Pre-emergence Test IPOHE percentage damage (five point scale) [11] | Pre-emergence Test ECHCG percentage damage (five point scale) [12]
4 (4=61-80%): Pre-emergence Test SOLNI percentage damage (five point scale) (Solanum nigrum (SOLNI) [7])

N#Cc1cccc(Oc2ccc(Cl)cn2)c1-c1cc(C(F)F)no1 [Compound A161]
5 (5=81-100%): percentage damage caused to the plant, SOLNI (Solanum nigrum (SOLNI) [1]) | percentage damage caused to the plant, SETFA (Setaria faberi (SETFA) [2]) | percentage damage caused to the plant, LOLPE (Lolium perenne (LOLPE) [3]) | percentage damage caused to the plant, AMARE [4] | percentage damage caused to the plant, IPOHE [5] | percentage damage caused to the plant, ECHCG [6] | Pre-emergence Test SETFA percentage damage (five point scale) (Setaria faberi (SETFA) [8]) | Pre-emergence Test LOLPE percentage damage (five point scale) (Lolium perenne (LOLPE) [9]) | Pre-emergence Test AMARE percentage damage (five point scale) [10] | Pre-emergence Test IPOHE percentage damage (five point scale) [11] | Pre-emergence Test ECHCG percentage damage (five point scale) [12]
4 (4=61-80%): Pre-emergence Test SOLNI percentage damage (five point scale) (Solanum nigrum (SOLNI) [7])

N#Cc1cccc(Oc2ncc(Cl)cc2F)c1-c1cc(C(F)F)no1 [Compound A162]
5 (5=81-100%): percentage damage caused to the plant, SOLNI (Solanum nigrum (SOLNI) [1]) | percentage damage caused to the plant, SETFA (Setaria faberi (SETFA) [2]) | percentage damage caused to the plant, LOLPE (Lolium perenne (LOLPE) [3]) | percentage damage caused to the plant, AMARE [4] | percentage damage caused to the plant, IPOHE [5] | Pre-emergence Test SETFA percentage damage (five point scale) (Setaria faberi (SETFA) [8]) | Pre-emergence Test LOLPE percentage damage (five point scale) (Lolium perenne (LOLPE) [9]) | Pre-emergence Test AMARE percentage damage (five point scale) [10] | Pre-emergence Test IPOHE percentage damage (five point scale) [11] | Pre-emergence Test ECHCG percentage damage (five point scale) [12]
4 (4=61-80%): percentage damage caused to the plant, ECHCG [6] | Pre-emergence Test SOLNI percentage damage (five point scale) (Solanum nigrum (SOLNI) [7])
